Test results taken from ChEMBL document CHEMBL6078713, “Synthesis and mechanistic studies of 4-aminoquinoline-Isatin molecular hybrids and Schiff's bases as promising antimicrobial agents” (Eur J Med Chem, 2025).
Values after ≈ are worked out from the molar mass of the structure shown. Active and inactive are the calls of the source. The calls are words filed in the database; no cut-off is given here.

Tests used:
Staphylococcus aureus [1] = assay: Antibacterial activity against Staphylococcus aureus MTCC 902 assessed as diameter of zone of inhibition at MIC incubated overnight by disk diffusion method; type: functional
Pseudomonas aeruginosa [2] = assay: Antibacterial activity against Pseudomonas aeruginosa MTCC 2453 assessed as inhibition of bacterial growth incubated overnight by serial dilution based spectrophotometer; type: functional
Enterococcus faecalis [3] = assay: Ratio of MBC for antibacterial activity against Enterococcus faecalis MTCC 439 to MIC for bactericidal activity against Enterococcus faecalis MTCC 439; type: functional
Pseudomonas aeruginosa [4] = assay: Antibacterial activity against Pseudomonas aeruginosa MTCC 2453 assessed as diameter of zone of inhibition at 2 times MIC incubated overnight by disk diffusion method; type: functional
Bacillus subtilis [5] = assay: Synergistic antibacterial activity against Bacillus subtilis MTCC 736 assessed as fractional inhibitory concentration index incubated overnight in presence of ciprofloxacin by microdilution checkerboard assay; type: functional
Enterococcus faecalis [6] = assay: Bactericidal activity against Enterococcus faecalis MTCC 439 assessed as inhibition of bacterial growth incubated overnight; type: functional
Escherichia coli [7] = assay: Bacteriostatic activity against Escherichia coli MTCC 443 assessed as reduction in bacterial growth at 2 times MIC measured upto 24 hrs by absorbance based assay; type: functional, organism-based
Enterococcus faecalis [8] = assay: Synergistic antibacterial activity against Enterococcus faecalis MTCC 439 assessed as fractional inhibitory concentration index incubated overnight in presence of ciprofloxacin by microdilution checkerboard assay; type: functional
Staphylococcus aureus [9] = assay: Synergistic antibacterial activity against Staphylococcus aureus MTCC 902 assessed as inhibition of bacterial growth incubated overnight in presence of ciprofloxacin by serial dilution based spectrophotometer; type: functional
Bacillus subtilis [10] = assay: Synergistic antibacterial activity against Bacillus subtilis MTCC 736 assessed as inhibition of bacterial growth incubated overnight in presence of ciprofloxacin by serial dilution based spectrophotometer; type: functional
Staphylococcus aureus [11] = assay: Antibacterial activity against Staphylococcus aureus MTCC 902 assessed as diameter of zone of inhibition at 500 ug/ml by agar disk diffusion method; type: functional; details: read-out: DIZ
Salmonella typhi [12] = assay: Antibacterial activity against Salmonella typhi assessed as diameter of zone of inhibition at 0.5 times MIC incubated overnight by disk diffusion method; type: functional, Salmonella enterica subsp. enterica serovar Typhi
Pseudomonas aeruginosa [13] = assay: Ratio of MBC for antibacterial activity against Pseudomonas aeruginosa MTCC 2453 to MIC for bactericidal activity against Pseudomonas aeruginosa MTCC 2453; type: functional
Escherichia coli [14] = assay: Antibacterial activity against Escherichia coli MTCC 443 assessed as diameter of zone of inhibition at 2 times MIC incubated overnight by disk diffusion method; type: functional
Bacillus subtilis [15] = assay: Bactericidal activity against Bacillus subtilis MTCC 736 assessed as inhibition of bacterial growth incubated overnight; type: functional
Enterococcus faecalis [16] = assay: Antibacterial activity against Enterococcus faecalis MTCC 439 assessed as diameter of zone of inhibition at MIC incubated overnight by disk diffusion method; type: functional
Staphylococcus aureus [17] = assay: Bacteriostatic activity against Staphylococcus aureus MTCC 902 assessed as reduction in bacterial growth at 2 times MIC measured upto 24 hrs by absorbance based assay; type: functional, organism-based
Salmonella typhi [18] = assay: Antibacterial activity against Salmonella typhi assessed as diameter of zone of inhibition at 2 times MIC incubated overnight by disk diffusion method; type: functional, Salmonella enterica subsp. enterica serovar Typhi
Escherichia coli [19] = assay: Antibacterial activity against Escherichia coli MTCC 443 assessed as diameter of zone of inhibition at 0.5 times MIC incubated overnight by disk diffusion method; type: functional
Salmonella typhi [20] = assay: Ratio of MBC for antibacterial activity against Salmonella typhi to MIC for bactericidal activity against Salmonella typhi; type: functional, Salmonella enterica subsp. enterica serovar Typhi
Enterococcus faecalis [21] = assay: Antibacterial activity against Enterococcus faecalis MTCC 439 assessed as diameter of zone of inhibition at 0.5 times MIC incubated overnight by disk diffusion method; type: functional
Salmonella typhi [22] = assay: Synergistic antibacterial activity against Salmonella typhi assessed as fractional inhibitory concentration index incubated overnight in presence of ciprofloxacin by microdilution checkerboard assay; type: functional, Salmonella enterica subsp. enterica serovar Typhi
Pseudomonas aeruginosa [23] = assay: Synergistic antibacterial activity against Pseudomonas aeruginosa MTCC 2453 assessed as inhibition of bacterial growth incubated overnight in presence of ciprofloxacin by serial dilution based spectrophotometer; type: functional
Staphylococcus aureus [24] = assay: Synergistic antibacterial activity against Staphylococcus aureus MTCC 902 assessed as fractional inhibitory concentration index incubated overnight in presence of ciprofloxacin by microdilution checkerboard assay; type: functional
Escherichia coli [25] = assay: Synergistic antibacterial activity against Escherichia coli MTCC 443 assessed as fractional inhibitory concentration index incubated overnight in presence of ciprofloxacin by microdilution checkerboard assay; type: functional
Enterococcus faecalis [26] = assay: Synergistic antibacterial activity against Enterococcus faecalis MTCC 439 assessed as inhibition of bacterial growth incubated overnight in presence of ciprofloxacin by serial dilution based spectrophotometer; type: functional
Bacillus subtilis [27] = assay: Ratio of MBC for antibacterial activity against Bacillus subtilis MTCC 736 to MIC for bactericidal activity against Bacillus subtilis MTCC 736; type: functional
Escherichia coli [28] = assay: Synergistic antibacterial activity against Escherichia coli MTCC 443 assessed as inhibition of bacterial growth incubated overnight in presence of ciprofloxacin by serial dilution based spectrophotometer; type: functional
Salmonella typhi [29] = assay: Antibacterial activity against Salmonella typhi assessed as inhibition of bacterial growth incubated overnight by serial dilution based spectrophotometer; type: functional, Salmonella enterica subsp. enterica serovar Typhi; details: Salmonella enterica
Staphylococcus aureus [30] = assay: Bactericidal activity against Staphylococcus aureus MTCC 902 assessed as inhibition of bacterial growth incubated overnight; type: functional
Bacillus subtilis [31] = assay: Antibacterial activity against Bacillus subtilis MTCC 736 assessed as inhibition of bacterial growth incubated overnight by serial dilution based spectrophotometer; type: functional
Enterococcus faecalis [32] = assay: Antibacterial activity against Enterococcus faecalis MTCC 439 assessed as inhibition of bacterial growth incubated overnight by serial dilution based spectrophotometer; type: functional
Escherichia coli [33] = assay: Antibacterial activity against Escherichia coli MTCC 443 assessed as diameter of zone of inhibition at 500 ug/ml by agar disk diffusion method; type: functional; details: read-out: DIZ
Enterococcus faecalis [34] = assay: Antibacterial activity against Enterococcus faecalis MTCC 439 assessed as diameter of zone of inhibition at 500 ug/ml by agar disk diffusion method; type: functional; details: read-out: DIZ
Pseudomonas aeruginosa [35] = assay: Antibacterial activity against Pseudomonas aeruginosa MTCC 2453 assessed as diameter of zone of inhibition at 500 ug/ml by agar disk diffusion method; type: functional; details: read-out: DIZ
Staphylococcus aureus [36] = assay: Antibacterial activity against Staphylococcus aureus MTCC 902 assessed as diameter of zone of inhibition at 2 times MIC incubated overnight by disk diffusion method; type: functional
Pseudomonas aeruginosa [37] = assay: Antibacterial activity against Pseudomonas aeruginosa MTCC 2453 assessed as diameter of zone of inhibition at MIC incubated overnight by disk diffusion method; type: functional
Staphylococcus aureus [38] = assay: Antibacterial activity against Staphylococcus aureus MTCC 902 assessed as inhibition of bacterial growth incubated overnight by serial dilution based spectrophotometer; type: functional
Escherichia coli [39] = assay: Antibacterial activity against Escherichia coli MTCC 443 assessed as diameter of zone of inhibition at MIC incubated overnight by disk diffusion method; type: functional
Salmonella typhi [40] = assay: Antibacterial activity against Salmonella typhi assessed as diameter of zone of inhibition at 500 ug/ml by agar disk diffusion method; type: functional, Salmonella enterica subsp. enterica serovar Typhi; details: Salmonella enterica, read-out: DIZ
Escherichia coli [41] = assay: Bactericidal activity against Escherichia coli MTCC 443 assessed as inhibition of bacterial growth incubated overnight; type: functional
Escherichia coli [42] = assay: Antibacterial activity against Escherichia coli MTCC 443 assessed as inhibition of bacterial growth incubated overnight by serial dilution based spectrophotometer; type: functional
Bacillus subtilis [43] = assay: Antibacterial activity against Bacillus subtilis MTCC 736 assessed as diameter of zone of inhibition at MIC incubated overnight by disk diffusion method; type: functional

Clc1ccc2c(NCC/N=C/c3ccc4ccccc4n3)ccnc2c1
diameter of the inhibition zone (DIZ) (Staphylococcus aureus [1]): 8 mm | MIC (Pseudomonas aeruginosa [2]): 256 µg/mL (≈ 709 µM) | Ratio (Enterococcus faecalis [3]): 2 | diameter of the inhibition zone (DIZ) (Pseudomonas aeruginosa [4]): 8 mm | fractional inhibitory concentration index (FICI) (Bacillus subtilis [5]): 1.25 | MBC (Enterococcus faecalis [6]): 512 µg/mL (≈ 1420 µM) | Activity (Escherichia coli [7]): Active | fractional inhibitory concentration index (FICI) (Enterococcus faecalis [8]): 0.312 | MIC (Staphylococcus aureus [9]): 256 µg/mL | MIC (Bacillus subtilis [10]): 32 µg/mL | zone of inhibition at 500 µg/mL (Staphylococcus aureus [11]): 8 mm | diameter of the inhibition zone (DIZ) (Salmonella typhi [12]): 9 mm | Ratio (Pseudomonas aeruginosa [13]): 2 | diameter of the inhibition zone (DIZ) (Escherichia coli [14]): 12 mm | MBC (Bacillus subtilis [15]): 512 µg/mL (≈ 1420 µM) | diameter of the inhibition zone (DIZ) (Enterococcus faecalis [16]): 7 mm | Activity (Staphylococcus aureus [17]): Active | diameter of the inhibition zone (DIZ) (Salmonella typhi [18]): 12 mm | diameter of the inhibition zone (DIZ) (Escherichia coli [19]): 11 mm | Ratio (Salmonella typhi [20]): 1 | diameter of the inhibition zone (DIZ) (Enterococcus faecalis [21]): 7 mm | fractional inhibitory concentration index (FICI) (Salmonella typhi [22]): 0.093 | MIC (Pseudomonas aeruginosa [23]): 64 µg/mL | fractional inhibitory concentration index (FICI) (Staphylococcus aureus [24]): 1.5 | fractional inhibitory concentration index (FICI) (Escherichia coli [25]): 0.281 | MIC (Enterococcus faecalis [26]): 16 µg/mL | Ratio (Bacillus subtilis [27]): 4 | MIC (Escherichia coli [28]): 4 µg/mL | MIC (Salmonella typhi [29]): 128 µg/mL (≈ 355 µM) | MBC (Staphylococcus aureus [30]): 512 µg/mL (≈ 1420 µM) | MIC (Bacillus subtilis [31]): 128 µg/mL (≈ 355 µM) | MIC (Enterococcus faecalis [32]): 256 µg/mL (≈ 709 µM) | zone of inhibition at 500 µg/mL (Escherichia coli [33]): 11 mm | zone of inhibition at 500 µg/mL (Enterococcus faecalis [34]): 10 mm | zone of inhibition at 500 µg/mL (Pseudomonas aeruginosa [35]): 10 mm | diameter of the inhibition zone (DIZ) (Staphylococcus aureus [36]): 10 mm | diameter of the inhibition zone (DIZ) (Pseudomonas aeruginosa [37]): 6 mm | MIC (Staphylococcus aureus [38]): 512 µg/mL (≈ 1420 µM) | diameter of the inhibition zone (DIZ) (Escherichia coli [39]): 11 mm | zone of inhibition at 500 µg/mL (Salmonella typhi [40]): 11 mm | MBC (Escherichia coli [41]): 128 µg/mL (≈ 355 µM) | MIC (Escherichia coli [42]): 128 µg/mL (≈ 355 µM) | diameter of the inhibition zone (DIZ) (Bacillus subtilis [43]): 6 mm

O=[N+]([O-])c1ccccc1/C=N/CCNc1ccnc2cc(Cl)ccc12
diameter of the inhibition zone (DIZ) (Staphylococcus aureus [1]): 8 mm | MIC (Pseudomonas aeruginosa [2]): 128 µg/mL (≈ 361 µM) | Ratio (Enterococcus faecalis [3]): 2 | diameter of the inhibition zone (DIZ) (Pseudomonas aeruginosa [4]): 11 mm | fractional inhibitory concentration index (FICI) (Bacillus subtilis [5]): 0.5 | MBC (Enterococcus faecalis [6]): 256 µg/mL (≈ 722 µM) | Activity (Escherichia coli [7]): Active | fractional inhibitory concentration index (FICI) (Enterococcus faecalis [8]): 0.265 | MIC (Staphylococcus aureus [9]): 64 µg/mL | MIC (Bacillus subtilis [10]): 32 µg/mL | zone of inhibition at 500 µg/mL (Staphylococcus aureus [11]): 10 mm | diameter of the inhibition zone (DIZ) (Salmonella typhi [12]): 6 mm | Ratio (Pseudomonas aeruginosa [13]): 1 | diameter of the inhibition zone (DIZ) (Escherichia coli [14]): 9 mm | MBC (Bacillus subtilis [15]): 128 µg/mL (≈ 361 µM) | diameter of the inhibition zone (DIZ) (Enterococcus faecalis [16]): 10 mm | Activity (Staphylococcus aureus [17]): Active | diameter of the inhibition zone (DIZ) (Salmonella typhi [18]): 8 mm | diameter of the inhibition zone (DIZ) (Escherichia coli [19]): 6 mm | Ratio (Salmonella typhi [20]): 1 | diameter of the inhibition zone (DIZ) (Enterococcus faecalis [21]): 9 mm | fractional inhibitory concentration index (FICI) (Salmonella typhi [22]): 0.077 | MIC (Pseudomonas aeruginosa [23]): 64 µg/mL | fractional inhibitory concentration index (FICI) (Staphylococcus aureus [24]): 1.25 | fractional inhibitory concentration index (FICI) (Escherichia coli [25]): 0.124 | MIC (Enterococcus faecalis [26]): 2 µg/mL | Ratio (Bacillus subtilis [27]): 1 | MIC (Escherichia coli [28]): 8 µg/mL | MIC (Salmonella typhi [29]): 64 µg/mL (≈ 180 µM) | MBC (Staphylococcus aureus [30]): 256 µg/mL (≈ 722 µM) | MIC (Bacillus subtilis [31]): 128 µg/mL (≈ 361 µM) | MIC (Enterococcus faecalis [32]): 128 µg/mL (≈ 361 µM) | zone of inhibition at 500 µg/mL (Escherichia coli [33]): 11 mm | zone of inhibition at 500 µg/mL (Enterococcus faecalis [34]): 13 mm | zone of inhibition at 500 µg/mL (Pseudomonas aeruginosa [35]): 11 mm | diameter of the inhibition zone (DIZ) (Staphylococcus aureus [36]): 9 mm | diameter of the inhibition zone (DIZ) (Pseudomonas aeruginosa [37]): 8 mm | MIC (Staphylococcus aureus [38]): 256 µg/mL (≈ 722 µM) | diameter of the inhibition zone (DIZ) (Escherichia coli [39]): 7 mm | zone of inhibition at 500 µg/mL (Salmonella typhi [40]): 12 mm | MBC (Escherichia coli [41]): 128 µg/mL (≈ 361 µM) | MIC (Escherichia coli [42]): 128 µg/mL (≈ 361 µM) | diameter of the inhibition zone (DIZ) (Bacillus subtilis [43]): 9 mm
